Results from patent US20160102103A1, “SUBSTITUTED PYRIDINE COMPOUNDS HAVING HERBICIDAL ACTIVITY” (BASF SE, priority 2013, published 2016).

Assays:
Format in all cases: in vivo
Abutilon theophrasti = assay: greenhouse post-emergence herbicidal test, ABUTH; conditions: scale from 0 to 100
Excerpt: (§1) The seeds of the test plants were sown separately for each species. For the post-emergence treatment, the test plants were first grown to a height of 3 to 15 cm, depending on the plant habit, and only then treated with the active ingredients which had been suspended or emulsified in water. For this purpose, the test plants were either sown directly and grown in the same containers, or they were first grown separately as seedlings and transplanted into the test containers a few days prior to treatment. Depending on the species, the plants were kept at 10-25° C. or 20-35° C., respectively. The test period extended over 2 to 4 weeks. During this time, the plants were tended, and their response to the individual treatments was evaluated. Evaluation was carried out using a scale from 0 to 100. 100 means no emergence of the plants, or complete destruction of at least the aerial moieties, and 0 means no damage, or normal course of growth. A good herbicidal activity is given at values of at least 70 and a very good herbicidal activity is given at values of at least 85. The plants used in the greenhouse experiments were of the following species: [table]

Echinocloa crus-galli = assay: greenhouse post-emergence herbicidal test, ECHCG; conditions: scale from 0 to 100
Excerpt: as §1

Capsella bursa-pastoris = assay: greenhouse post-emergence herbicidal test, CAPBP; conditions: application rate 0.25 kg/ha, scale from 0 to 100
Excerpt: as §1

Setaria faberi = assay: greenhouse post-emergence herbicidal test, SETFA; conditions: application rate 0.125 kg/ha, scale from 0 to 100
Excerpt: as §1

Thlaspi arvense = assay: greenhouse post-emergence herbicidal test, THLAR; conditions: application rate 0.25 kg/ha, scale from 0 to 100
Excerpt: as §1

Setaria viridis = assay: greenhouse post-emergence herbicidal test, SETVI; conditions: scale from 0 to 100
Excerpt: as §1

Polygonum convolvulus = assay: greenhouse post-emergence herbicidal test, POLCO; conditions: application rate 0.125 kg/ha, scale from 0 to 100
Excerpt: as §1

Amaranthus retroflexus = assay: greenhouse post-emergence herbicidal test, AMARE; conditions: application rate 0.271 kg/ha, scale from 0 to 100
Excerpt: as §1

Q: For COc1c(Cl)ncc(Cl)c1C1=C(O)c2ncccc2C(C)(C)S1(=O)=O [Compound I-16], which “herbicidal activity against ABUTH” value (Abutilon theophrasti; application rate 0.125 kg/ha) is on record?
A: Its value is “very good herbicidal activity (a very good herbicidal activity is given at values of at least 85)”.

Q: O=S1(=O)Cc2cccnc2C(O)=C1c1c(F)cnc(Cl)c1Br [Compound I-27] was tested. Which “herbicidal activity against ECHCG” value (Echinocloa crus-galli; application rate 0.25 kg/ha) did it give?
A: Its value is “very good herbicidal activity (a very good herbicidal activity is given at values of at least 85)”.

Q: For CC1c2cccnc2C(OC(=O)C(C)(C)C)=C(c2c(Cl)cnc(Cl)c2Cl)S1(=O)=O (stereo not shown) [Compound I-7], which “herbicidal activity against CAPBP” value (Capsella bursa-pastoris) is on record?
A: Its value is “very good herbicidal activity (a very good herbicidal activity is given at values of at least 85)”.

Q: How did the “herbicidal activity against SETFA” value (Setaria faberi) turn out when CC1(C)c2cccnc2C(O)=C(c2c(F)cnc(Cl)c2Br)S1(=O)=O [Compound I-28] was run?
A: Its value is “very good herbicidal activity (a very good herbicidal activity is given at values of at least 85)”.

Q: O=S1(=O)C(c2c(Cl)cnc(Cl)c2Cl)=C(O)c2ncccc2C12CC2 [Compound I-12] was tested. Which “herbicidal activity against THLAR” value (Thlaspi arvense) did it give?
A: Its value is “very good herbicidal activity (a very good herbicidal activity is given at values of at least 85)”.

Q: Which “herbicidal activity against SETVI” value (Setaria viridis; application rate 0.25 kg/ha) does the source give for COc1c(Cl)ncc(Cl)c1C1=C(OC(=O)C(C)(C)C)c2ncccc2CS1(=O)=O [Compound I-13] here?
A: Its value is “good herbicidal activity (A good herbicidal activity is given at values of at least 70)”.

Q: With CC(C)(C)C(=O)OC1=C(c2c(Cl)cnc(Cl)c2Cl)S(=O)(=O)C2(CC2)c2cccnc21 [Compound I-11] as the compound, how does the “herbicidal activity against ECHCG” value (Echinocloa crus-galli; application rate 0.50 kg/ha) read?
A: The value was “very good herbicidal activity (a very good herbicidal activity is given at values of at least 85)”.

Q: What about the “herbicidal activity against SETVI” value (Setaria viridis; application rate 0.50 kg/ha) of the same compound?
A: Its value is “very good herbicidal activity (a very good herbicidal activity is given at values of at least 85)”.

Q: What about the “herbicidal activity against ABUTH” value (Abutilon theophrasti; application rate 0.50 kg/ha) of the same compound?
A: The value was “very good herbicidal activity (a very good herbicidal activity is given at values of at least 85)”.

Q: Cc1c(Cl)ncc(F)c1C1=C(O)c2ncccc2CS1(=O)=O [Compound I-36] was tested. Which “herbicidal activity against ECHCG” value (Echinocloa crus-galli; application rate 1.0 kg/ha) did it give?
A: Its value is “good herbicidal activity (A good herbicidal activity is given at values of at least 70)”.

Q: CC1(C)c2cccnc2C(O)=C(c2c(Cl)cnc(Cl)c2F)S1(=O)=O [Compound I-39] was tested. Which “herbicidal activity against POLCO” value (Polygonum convolvulus) did it give?
A: Its value is “good herbicidal activity (A good herbicidal activity is given at values of at least 70)”.

Q: With O=S1(=O)Cc2cccnc2C(O)=C1c1c(Br)cnc(Cl)c1F [Compound I-40] as the compound, how does the “herbicidal activity against ECHCG” value (Echinocloa crus-galli; application rate 0.125 kg/ha) read?
A: The value was “good herbicidal activity (A good herbicidal activity is given at values of at least 70)”.

Q: COc1c(Cl)ncc(Cl)c1C1=C(OC(=O)C(C)(C)C)c2ncccc2C2(CC2)S1(=O)=O [Compound I-19] was tested. Which “herbicidal activity against SETVI” value (Setaria viridis; application rate 0.271 kg/ha) did it give?
A: Its value is “very good herbicidal activity (a very good herbicidal activity is given at values of at least 85)”.

Q: And the “herbicidal activity against ABUTH” value (Abutilon theophrasti; application rate 0.271 kg/ha)?
A: The value was “very good herbicidal activity (a very good herbicidal activity is given at values of at least 85)”.

Q: And the “herbicidal activity against AMARE” value (Amaranthus retroflexus)?
A: The value was “very good herbicidal activity (a very good herbicidal activity is given at values of at least 85)”.

Q: O=S1(=O)Cc2cccnc2C(O)=C1c1c(Cl)cncc1Cl [Compound I-1] was tested. Which “herbicidal activity against ABUTH” value (Abutilon theophrasti; application rate 0.25 kg/ha) did it give?
A: The value was “very good herbicidal activity (a very good herbicidal activity is given at values of at least 85)”.
